Assay results from patent US8372834B2, “Compositions and methods for delivery of anti-cancer agents” (University of Wollongong, priority 2007, dated 2013).

Experiments:
COLO-201 = assay: In vitro cytotoxicity, MTS cell proliferation assay; format: cell-based; conditions: COLO-201 cells
Procedure: (§1) After 72 h, cell proliferation was analysed by the MTS assay and normalised to saline control treatments (100% proliferation). ● 5-FU, ▪ 5-FU:FA, ▴ FD45c, ♦ FD50-7Sc, ? FD100HPc. Dashed lines represent the IC50 for each treatment (GraphPad). Values shown are mean±SD (n=4, except for HCT-116 FD50-7Sc and MDA-MB-231 FD100HPc where n=3)
(§2) In vitro cytotoxicity assays were carried out on 5 different carcinoma cell lines (MDA-MB-231, HCT-116, COLO-201, PC-3 and PC-14) using 3 different compositions of the invention (FD45c, FD50-7Sc and FD100HPc). MDA-MB-231 is a breast cancer cell line, HCT-116 and COLO-201 are colon cancer cell lines, PC-3 is a prostate cancer cell line and PC-14 is a non-small cell lung cancer cell line.
(§3) The levels of 5-FU and FA remained constant in each composition. For comparison, assays were also performed using a combination of 5-FU and FA (5-FU:FA), and also 5-FU only. A summary of IC50 values for all cell lines is presented in Table 1 below, and representative dose-response curves used to generate these IC50 values are presented in FIG. 3.

PC-14 = assay: as above; format: cell-based; conditions: PC-14 cells
Procedure: as §1, §2, §3

HCT-116 = assay: as above; format: cell-based; conditions: Homo sapiens, HCT-116 cells, 72 h, mean IC50 ± SD, at least 3 independent experiments, read-out: IC50 (μM 5-FU)
Procedure: as §1, §2, §3

MDA-MB-231 = assay: as above; format: cell-based; conditions: Homo sapiens, MDA-MB-231 cells, 72 h, mean IC50 ± SD, at least 3 independent experiments, read-out: IC50 (μM 5-FU)
Procedure: as §1, §2, §3

PC-3 = assay: as above; format: cell-based; conditions: Homo sapiens, PC-3 cells, 72 h, mean IC50 ± SD, at least 3 independent experiments, read-out: IC50 (μM 5-FU)
Procedure: as §1, §2, §3

[1] = Preliminary stability study of compositions; format: physicochemical; conditions: three weeks, room temperature, protected from light
Procedure: A preliminary assessment of the stability of the compositions was carried out over a period of three weeks. Test samples were manufactured using the FD2 method described above and stored at room temperature. 5-FU is known to be light sensitive and therefore the samples were protected from exposure to light. The samples were monitored at set time intervals for signs of decomposition using a solution of the equivalent concentration of 5-FU in saline (0.9%) as a control. The methods of monitoring the solutions were physical appearance (solid formation etc.), pH and UV-VIS absorbance spectroscopy (266 nm). The 5-FU solution was warmed and sonicated to dissolve any solid 5-FU that had precipitated before pH and absorbance readings.

[2] = Homo sapiens, 72 h, MTS assay, mean IC50 ± SD, at least 3 independent experiments, read-out: IC50 (μM 5-FU)

- change in pH over time [1]: No significant change
- change in A266 over time (UV-VIS absorbance, 266 nm) ([1]; serial dilution): No overall trend of change
SMILES: O=c1[nH]cc(F)c(=O)[nH]1 [Composition 5-FU, 5-fluorouracil]
- effectiveness compared to 5-FU:FA (COLO-201; P=0.0084): significantly less effective than 5-FU:FA
- IC50 (COLO-201; [2]): 39.3 ± 13.9 µM
- IC50 (PC-14; [2]): 33.4 ± 12.2 µM
- effectiveness compared to 5-FU:FA (PC-14; P=0.0084): significantly less effective than 5-FU:FA
- IC50 (HCT-116): 4 ± 1.3 µM
- IC50 (MDA-MB-231): 9.1 ± 1.4 µM
- IC50 (PC-3): 1.4 ± 0.8 µM
